Tested on: subclinical sun damage
Assay: Follow-up treatments of one patient on a substantially annual basis
Assay type: in vivo, human
Settings: each time after the first treatment
From the text: In order to assess the scope of original treatment, one patient received further treatments over a substantially annual basis. In Table 4, treatment #, days since last treatment, and observations are provided. […] From this, it was concluded that all of the subclinical sun damage treated most likely resolved during each cycle of therapy. Subsequent milder reactions appear to have treated new subclinical sun damage or possible recurrent sun damage. […] The freckle also resolved itself after follow-up treatment #1. During follow-up treatment #2, FIG. 4C, there was no sign of the freckle. That is, where there may not have been a response during an earlier treatment, a subsequent treatment invoked a response. Moreover, responses to successive treatments, if any, were not as severe as the initial response. […] It is also concluded that annual treatment aids in preventing actinic keratoses from forming as well as eliminates any new sun damage.

O=c1[nH]cc(F)c(=O)[nH]1 [5-FU, 5-fluorouracil]
response in follow-up treatments: mild erythema

Source: US8658619B2, “Methods of treating subclinical sun damage” (priority 2010, dated 2014)
